Results from ChEMBL document CHEMBL6134883, “Novel Piperidinylpyridinylcarbonitrile Derivatives as QPCT and QPCTL Inhibitors for Treating Cancer” (ACS Med Chem Lett, 2025).
pIC50: −log10 of the molar value.

Assay: Inhibition of N-terminal His/DDK-tagged recombinant human QPCTL extracted from HEK293T cells using QLLFNKTKSVEFTFC as substrate preincubated for 10 mins followed by substrate addition measured after 40 mins by MALDI-TOF MS analysis
Type: cell-free

pIC50, 9.00:
Cn1cnnc1C1(F)CCN(c2c(C#N)cc(C(C)(C)O)nc2-c2cnc3nn(C(C)(C)C)c(Cl)c3c2)CC1
Cc1ccccc1-c1ccc2c(-c3nccc(C#N)c3N3CCC(F)(c4nncn4C)CC3)cnn2n1
Cn1cnnc1C1(F)CCN(c2c(C#N)ccnc2-c2cnn3nc(-c4cccc(Cl)c4)ccc23)CC1
Cn1cnnc1C1(F)CCN(c2c(C#N)cc(C(F)(F)F)nc2-c2cnc3nc(C(C)(C)C)oc3c2)CC1
Cc1ccc(-c2ccc3c(-c4nccc(C#N)c4N4CCC(F)(c5nncn5C)CC4)cnn3n2)c(C)c1
Cn1cnnc1C1(F)CCN(c2c(C#N)cc(C3CC3(F)F)nc2-c2cnc3nn(C(C)(C)C)cc3c2)CC1 (stereo unspecified)
